Assay results reported in ChEMBL document CHEMBL3714741, “Compounds and compositions as ITPKB inhibitors” (2011).
The source made the active and inactive calls. No rule for the calls is given here.

Key:
[1] = target: T1, Inositol-trisphosphate 3-kinase B (Homo sapiens) (UniProt P27987); experiment: Inhibition of ITPKb in human Jurkat cells assessed as reduction in conversion of IP3 to IP4 using [3H]-myo-inositol incubated for 5 mins by beta-RAM radio-HPLC method; assay type: cell-based
T1 sequence (whole entry): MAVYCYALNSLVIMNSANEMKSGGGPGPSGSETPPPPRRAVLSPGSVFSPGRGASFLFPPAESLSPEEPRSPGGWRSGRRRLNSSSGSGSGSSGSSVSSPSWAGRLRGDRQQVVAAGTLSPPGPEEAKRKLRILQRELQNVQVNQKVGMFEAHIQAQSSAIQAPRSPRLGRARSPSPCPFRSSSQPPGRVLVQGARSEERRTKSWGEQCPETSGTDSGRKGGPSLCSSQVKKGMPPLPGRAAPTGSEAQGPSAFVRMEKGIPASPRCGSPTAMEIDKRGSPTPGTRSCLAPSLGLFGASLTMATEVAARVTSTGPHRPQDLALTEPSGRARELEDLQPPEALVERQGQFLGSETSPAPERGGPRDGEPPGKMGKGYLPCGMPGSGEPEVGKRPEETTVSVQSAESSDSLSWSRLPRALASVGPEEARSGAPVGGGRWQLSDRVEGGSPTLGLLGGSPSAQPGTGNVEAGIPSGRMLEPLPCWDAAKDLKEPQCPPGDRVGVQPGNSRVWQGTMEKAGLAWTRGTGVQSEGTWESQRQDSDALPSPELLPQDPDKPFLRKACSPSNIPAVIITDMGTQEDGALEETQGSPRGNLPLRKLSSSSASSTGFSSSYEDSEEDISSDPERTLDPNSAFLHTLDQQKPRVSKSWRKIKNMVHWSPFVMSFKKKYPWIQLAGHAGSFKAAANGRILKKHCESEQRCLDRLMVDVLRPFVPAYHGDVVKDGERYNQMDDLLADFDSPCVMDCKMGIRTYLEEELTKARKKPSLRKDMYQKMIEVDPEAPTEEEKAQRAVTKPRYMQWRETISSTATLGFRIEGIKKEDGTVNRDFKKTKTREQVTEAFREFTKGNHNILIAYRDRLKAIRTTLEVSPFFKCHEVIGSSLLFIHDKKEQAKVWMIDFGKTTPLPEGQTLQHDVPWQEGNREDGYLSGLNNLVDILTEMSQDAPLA

[2] = target: T2, Kinase (Mus musculus, UniProt B2RXC2); experiment: Inhibition of mouse ITPKb (640 to 942 residues) expressed in Escherichia coli HK100 assessed as reduction in phosphorylation of IP3 to IP4 incubated for 60 mins by kinase-Glo ATP depletion assay
T2 sequence (B2RXC2 whole entry): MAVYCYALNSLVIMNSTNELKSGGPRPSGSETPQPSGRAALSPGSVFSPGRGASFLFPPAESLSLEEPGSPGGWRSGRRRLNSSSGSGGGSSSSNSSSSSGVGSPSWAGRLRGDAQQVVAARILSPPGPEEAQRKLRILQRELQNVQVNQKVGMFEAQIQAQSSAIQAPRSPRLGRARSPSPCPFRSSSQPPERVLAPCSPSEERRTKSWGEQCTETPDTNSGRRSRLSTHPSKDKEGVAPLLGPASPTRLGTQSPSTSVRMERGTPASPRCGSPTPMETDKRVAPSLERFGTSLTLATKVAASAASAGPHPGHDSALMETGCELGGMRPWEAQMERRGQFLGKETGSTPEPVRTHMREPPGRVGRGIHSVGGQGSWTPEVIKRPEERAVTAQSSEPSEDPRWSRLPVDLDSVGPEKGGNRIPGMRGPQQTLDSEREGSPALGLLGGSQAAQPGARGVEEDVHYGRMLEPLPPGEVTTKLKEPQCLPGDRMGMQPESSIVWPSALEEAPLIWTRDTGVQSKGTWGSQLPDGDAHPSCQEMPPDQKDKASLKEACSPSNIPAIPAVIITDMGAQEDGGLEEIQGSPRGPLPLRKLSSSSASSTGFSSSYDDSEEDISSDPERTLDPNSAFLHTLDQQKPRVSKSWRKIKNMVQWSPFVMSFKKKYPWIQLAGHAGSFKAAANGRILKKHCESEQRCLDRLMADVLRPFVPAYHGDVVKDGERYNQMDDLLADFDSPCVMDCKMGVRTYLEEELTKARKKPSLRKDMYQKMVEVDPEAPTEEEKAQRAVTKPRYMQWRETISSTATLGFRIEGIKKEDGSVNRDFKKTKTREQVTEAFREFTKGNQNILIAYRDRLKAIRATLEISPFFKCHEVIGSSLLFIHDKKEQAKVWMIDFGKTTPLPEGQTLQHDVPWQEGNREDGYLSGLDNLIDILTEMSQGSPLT

inhibition [1]	IC50 [2]	SMILES
Active		C[C@@H]1CN(Cc2c[nH]nc2-c2ccc(C(N)=O)[nH]2)CCN1c1ccc(C(F)(F)F)cn1
Active		C[C@@H]1CN(Cc2c[nH]nc2-c2c[nH]c(C(N)=O)c2)CCN1c1ccc(C(F)(F)F)cn1
Active		C[C@@H]1CN(Cc2c[nH]nc2C(=O)Nc2ccncc2)CCN1c1ccc(C(F)(F)F)cn1
Active		C[C@@H]1CN(Cc2c[nH]nc2C(=O)N2CC(O)C2)CCN1c1ccc(C(F)(F)F)cn1
Active		C[C@@H]1CN(Cc2c[nH]nc2C2=CCN(C=O)CC2)CCN1c1ccc(C(F)(F)F)cn1
Active		C[C@@H]1CN(Cc2c[nH]nc2C2CCN(C=O)CC2)CCN1c1ccc(C(F)(F)F)cn1
Active		C[C@@H]1CN(Cc2c[nH]nc2-c2c[nH]c3ncccc23)CCN1c1ccc(C(F)(F)F)cn1
Active		Cc1cc(NC(=O)c2n[nH]cc2CN2CCN(c3ccc(C(F)(F)F)cn3)[C@H](C)C2)n(CCN(C)C)n1
Active		C[C@@H]1CN(Cc2c[nH]nc2-c2nc(C(=N)N)c[nH]2)CCN1c1ccc(C(F)(F)F)cn1
Active		C[C@@H]1CN(Cc2c[nH]nc2-c2ccc(C(N)=O)o2)CCN1c1ccc(C(F)(F)F)cn1
Active		C[C@@H]1CN(Cc2c[nH]nc2C(=O)Nc2n[nH]cc2C#N)CCN1c1ccc(C(F)(F)F)cn1
Active		C[C@@H]1CN(Cc2c[nH]nc2-c2cc(C(=O)O)co2)CCN1c1ccc(C(F)(F)F)cn1
Active		C[C@@H]1CN(Cc2c[nH]nc2-c2cc(C(=O)N(C)C)c[nH]2)CCN1c1ccc(C(F)(F)F)cn1
Active	10 µM	Cc1cnc(-c2n[nH]cc2CN2CCN(c3ccc(C(F)(F)F)cn3)[C@H](C)C2)[nH]1
Active		C[C@@H]1CN(Cc2c[nH]nc2-c2ccc3cnccc3c2)CCN1c1ccc(C(F)(F)F)cn1
Active		C[C@@H]1CN(Cc2c[nH]nc2C(=O)Nc2cc(-c3ccco3)n[nH]2)CCN1c1ccc(C(F)(F)F)cn1
Active		FC(F)(F)c1ccc(N2CCN(Cc3c[nH]nc3-c3cccs3)CC2)nc1
Active		CC(=O)N1CC=C(c2n[nH]cc2CN2CCN(c3ccc(C(F)(F)F)cn3)[C@H](C)C2)CC1
Active		C[C@@H]1CN(Cc2c[nH]nc2-c2ccc(C#N)[nH]2)CCN1c1ccc(C(F)(F)F)cn1
Active		C[C@@H]1CN(Cc2c[nH]nc2-c2ccnc3[nH]ccc23)CCN1c1ccc(C(F)(F)F)cn1
Active		C[C@@H]1CN(Cc2c[nH]nc2-c2nc(C(N)=O)c[nH]2)CCN1c1ccc(C(F)(F)F)cn1
Active		C[C@@H]1CN(Cc2c[nH]nc2-c2cc3ccccc3[nH]2)CCN1c1ccc(C(F)(F)F)cn1
Active		C[C@@H]1CN(Cc2c[nH]nc2C2=CCN(C(=O)CCO)CC2)CCN1c1ccc(C(F)(F)F)cn1
Active		C[C@@H]1CN(Cc2c[nH]nc2-c2nc(C(F)(F)F)c[nH]2)CCN1c1ccc(C(F)(F)F)cn1
Active		C[C@@H]1CN(Cc2c[nH]nc2-c2nc(C#N)c[nH]2)CCN1c1ccc(C(F)(F)F)cn1
Active		C[C@@H]1CN(Cc2c[nH]nc2-c2nc3cnccc3[nH]2)CCN1c1ccc(C(F)(F)F)cn1

inhibition [1]	IC50 [2]	SMILES
Active		COC(=O)c1ccc(-c2n[nH]cc2CN2CCN(c3ccc(C(F)(F)F)cn3)[C@H](C)C2)o1
Active		C[C@@H]1CN(Cc2c[nH]nc2-c2c[nH]c(C#N)c2)CCN1c1ccc(C(F)(F)F)cn1
Active		Cc1nc(-c2n[nH]cc2CN2CCN(c3ccc(C(F)(F)F)cn3)[C@H](C)C2)[nH]c1C
Active		C[C@@H]1CN(Cc2c[nH]nc2C(=O)N2CCC(O)C2)CCN1c1ccc(C(F)(F)F)cn1 (some centres undefined)
Active		C[C@@H]1CN(Cc2c[nH]nc2-c2ccc(C#N)c(=O)[nH]2)CCN1c1ccc(C(F)(F)F)cn1
Active		C[C@@H]1CN(Cc2c[nH]nc2-c2cc(C#N)c[nH]2)CCN1c1ccc(C(F)(F)F)cn1
Active		C[C@@H]1CN(Cc2c[nH]nc2-c2ccc(C(=O)O)o2)CCN1c1ccc(C(F)(F)F)cn1
Active		NC(=O)c1c[nH]c(-c2n[nH]cc2CN2CCN(c3ccc(C(F)(F)F)cn3)[C@H](C(F)(F)F)C2)c1
Active		C[C@@H]1CN(Cc2c[nH]nc2-c2nc3cc(C#N)ccc3[nH]2)CCN1c1ccc(C(F)(F)F)cn1
Active		C[C@@H]1CN(Cc2c[nH]nc2C2CCNCC2)CCN1c1ccc(C(F)(F)F)cn1
Active		C[C@@H]1CN(Cc2c[nH]nc2/C=C2\NC(=O)NC2=O)CCN1c1ccc(C(F)(F)F)cn1
Active		C[C@@H]1CN(Cc2c[nH]nc2-c2cc(C(N)=O)co2)CCN1c1ccc(C(F)(F)F)cn1
Active		C[C@@H]1CN(Cc2c[nH]nc2-c2cc(C(=O)N[C@@H](C)CO)c[nH]2)CCN1c1ccc(C(F)(F)F)cn1
Active		CC(O)CNC(=O)c1c[nH]c(-c2n[nH]cc2CN2CCN(c3ccc(C(F)(F)F)cn3)[C@H](C)C2)c1 (some centres undefined)
Active		C[C@@H]1CN(Cc2c[nH]nc2-c2nc3c([nH]2)CCCC3)CCN1c1ccc(C(F)(F)F)cn1
Active		C[C@@H]1CN(Cc2c[nH]nc2C(=O)N2CCC(O)CC2)CCN1c1ccc(C(F)(F)F)cn1
Active		C[C@@H]1CN(Cc2c[nH]nc2/C=C2\NC(=N)NC2=O)CCN1c1ccc(C(F)(F)F)cn1
Active		C[C@@H]1CN(Cc2c[nH]nc2-c2nc(-c3ccccc3)c[nH]2)CCN1c1ccc(C(F)(F)F)cn1
Active		C[C@@H]1CN(Cc2c[nH]nc2-c2nc3cc(F)ccc3[nH]2)CCN1c1ccc(C(F)(F)F)cn1
Active		C[C@@H]1CN(Cc2c[nH]nc2-c2cc(C(N)=O)c[nH]2)CCN1c1ccc(C(F)(F)F)cn1
Active		C[C@@H]1CN(Cc2c[nH]nc2-c2nc3ccccc3[nH]2)CCN1c1ccc(C(F)(F)F)cn1
Active		N#Cc1c[nH]c(-c2n[nH]cc2CN2CCN(c3ccc(C(F)(F)F)cn3)[C@H](C(F)(F)F)C2)c1
Active		C[C@@H]1CN(Cc2c[nH]nc2-c2cc(C(=O)NCCO)c[nH]2)CCN1c1ccc(C(F)(F)F)cn1
Active		CNC(=O)c1c[nH]c(-c2n[nH]cc2CN2CCN(c3ccc(C(F)(F)F)cn3)[C@H](C)C2)c1
Active		C[C@@H]1CN(Cc2c[nH]nc2C(=O)Nc2nc[nH]c2C#N)CCN1c1ccc(C(F)(F)F)cn1
Active		C[C@@H]1CN(Cc2c[nH]nc2/C=C2\NC(=S)NC2=O)CCN1c1ccc(C(F)(F)F)cn1

SMILES	inhibition [1]	IC50 [2]
C[C@@H]1CN(Cc2c[nH]nc2C2=CCNCC2)CCN1c1ccc(C(F)(F)F)cn1	Active	
